Source: patent US20250302832A1, “PYRAZINE DERIVATIVES AND USES THEREOF” (FOGHORN THERAPEUTICS INC., priority 2022, published 2025)
Where two headings read alike, the source gives them in different places.

What was measured:
HiBit-BRM fusion protein = molecular target: T1, HiBit-BRM fusion protein (Homo sapiens, UniProt P51531); experiment: HiBiT-BRM cell-based degradation assay (Nano-Glo HiBiT lytic detection, 24 h); conditions: HeLa cell line expressing HiBiT-BRM; for DC50: read-out: BRM HiBit Degradation IC50
T1 construct: expressed in transfected cells
T1 sequence (P51531 whole entry, the tested form may be a part): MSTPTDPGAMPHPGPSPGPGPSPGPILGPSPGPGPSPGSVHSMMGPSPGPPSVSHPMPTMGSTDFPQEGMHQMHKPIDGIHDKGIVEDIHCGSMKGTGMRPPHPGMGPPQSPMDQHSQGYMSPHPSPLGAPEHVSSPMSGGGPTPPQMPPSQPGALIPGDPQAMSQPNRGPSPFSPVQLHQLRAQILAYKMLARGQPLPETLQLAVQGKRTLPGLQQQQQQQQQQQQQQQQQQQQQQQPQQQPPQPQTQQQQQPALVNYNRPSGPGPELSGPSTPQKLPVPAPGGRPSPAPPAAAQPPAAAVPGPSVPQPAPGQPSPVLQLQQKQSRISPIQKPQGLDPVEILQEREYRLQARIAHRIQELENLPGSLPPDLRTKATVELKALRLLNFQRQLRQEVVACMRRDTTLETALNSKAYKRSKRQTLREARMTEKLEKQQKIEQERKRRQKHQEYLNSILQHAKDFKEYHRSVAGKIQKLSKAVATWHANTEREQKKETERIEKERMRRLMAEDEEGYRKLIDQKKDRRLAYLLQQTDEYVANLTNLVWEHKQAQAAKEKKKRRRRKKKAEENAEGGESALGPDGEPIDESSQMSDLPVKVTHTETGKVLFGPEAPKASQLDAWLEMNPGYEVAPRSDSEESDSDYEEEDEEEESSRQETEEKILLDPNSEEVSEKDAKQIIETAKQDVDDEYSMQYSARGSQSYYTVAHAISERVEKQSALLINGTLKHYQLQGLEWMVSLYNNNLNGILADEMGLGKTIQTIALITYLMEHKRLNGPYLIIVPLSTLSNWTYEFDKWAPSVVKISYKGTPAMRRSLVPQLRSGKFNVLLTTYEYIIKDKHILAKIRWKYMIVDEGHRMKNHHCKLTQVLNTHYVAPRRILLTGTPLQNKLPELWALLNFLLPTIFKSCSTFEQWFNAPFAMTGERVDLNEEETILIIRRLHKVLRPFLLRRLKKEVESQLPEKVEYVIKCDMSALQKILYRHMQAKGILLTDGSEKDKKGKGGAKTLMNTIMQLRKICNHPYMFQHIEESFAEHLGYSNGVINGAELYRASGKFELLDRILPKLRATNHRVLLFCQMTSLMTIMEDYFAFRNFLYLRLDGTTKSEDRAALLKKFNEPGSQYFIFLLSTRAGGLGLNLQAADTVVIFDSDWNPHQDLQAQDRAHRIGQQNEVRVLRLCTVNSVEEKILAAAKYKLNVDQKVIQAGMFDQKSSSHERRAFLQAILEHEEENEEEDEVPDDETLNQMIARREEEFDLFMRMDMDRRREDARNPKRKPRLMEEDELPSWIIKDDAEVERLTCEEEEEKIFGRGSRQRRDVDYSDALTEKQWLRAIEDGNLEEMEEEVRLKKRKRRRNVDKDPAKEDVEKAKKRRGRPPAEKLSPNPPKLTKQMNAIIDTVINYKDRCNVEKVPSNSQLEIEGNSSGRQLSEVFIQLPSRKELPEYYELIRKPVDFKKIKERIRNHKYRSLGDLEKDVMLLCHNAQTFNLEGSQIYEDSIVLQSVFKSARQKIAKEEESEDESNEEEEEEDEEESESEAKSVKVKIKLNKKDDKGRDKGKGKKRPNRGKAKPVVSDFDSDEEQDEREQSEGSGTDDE
Description: (§1) Procedure: A stable HeLa cell line expressing HiBiT-BRM was generated. On day 0, 5000 cells were seeded in 40 μL of media into each well of 384-well cell culture plates. On day 1, cells were treated with 120 nL DMSO or 120 nL of 3-fold serially DMSO-diluted compounds (10 points in duplicate with 30 μM as final top dose). Subsequently plates were incubated for 24 h in a standard tissue culture incubator and equilibrated at room temperature for 15 minutes. Nano-GB HiBiT Lytic Detection System (Promega N3050) reagent was freshly prepared and 20 ul was added to each well. Upon addition of this LgBit-containing reagent, the HiBiT and LgBiT proteins associate to form the luminescent NanoBiT luciferase. The plates were shaken for 10 minutes at room temperature and the bioluminescence read using an EnVision plate reader (PerkinElmer).
(§2) The degradation % was calculated using the following formula: % degradation=100%−100%×(Lumsample−LuMLC)/(LuMHC−LuMLC). DMSO treated cells are employed as High Control (HC) and 2 μM of a known BRM/BRG1 degrader standard treated cells are employed as Low Control (LC).

[1] = molecular target: T2, HiBit-BRG1 fusion protein (Homo sapiens, UniProt P51532); experiment: HiBiT-BRG1 cell-based degradation assay (Nano-Glo HiBiT lytic detection, 24 h); conditions: for Dmax: read-out: BRG1 HiBit Degradation Maximum (%); for DC50: read-out: BRMG1 HiBit Degradation IC50
T2 construct: expressed in transfected cells
T2 sequence (P51532 whole entry, the tested form may be a part): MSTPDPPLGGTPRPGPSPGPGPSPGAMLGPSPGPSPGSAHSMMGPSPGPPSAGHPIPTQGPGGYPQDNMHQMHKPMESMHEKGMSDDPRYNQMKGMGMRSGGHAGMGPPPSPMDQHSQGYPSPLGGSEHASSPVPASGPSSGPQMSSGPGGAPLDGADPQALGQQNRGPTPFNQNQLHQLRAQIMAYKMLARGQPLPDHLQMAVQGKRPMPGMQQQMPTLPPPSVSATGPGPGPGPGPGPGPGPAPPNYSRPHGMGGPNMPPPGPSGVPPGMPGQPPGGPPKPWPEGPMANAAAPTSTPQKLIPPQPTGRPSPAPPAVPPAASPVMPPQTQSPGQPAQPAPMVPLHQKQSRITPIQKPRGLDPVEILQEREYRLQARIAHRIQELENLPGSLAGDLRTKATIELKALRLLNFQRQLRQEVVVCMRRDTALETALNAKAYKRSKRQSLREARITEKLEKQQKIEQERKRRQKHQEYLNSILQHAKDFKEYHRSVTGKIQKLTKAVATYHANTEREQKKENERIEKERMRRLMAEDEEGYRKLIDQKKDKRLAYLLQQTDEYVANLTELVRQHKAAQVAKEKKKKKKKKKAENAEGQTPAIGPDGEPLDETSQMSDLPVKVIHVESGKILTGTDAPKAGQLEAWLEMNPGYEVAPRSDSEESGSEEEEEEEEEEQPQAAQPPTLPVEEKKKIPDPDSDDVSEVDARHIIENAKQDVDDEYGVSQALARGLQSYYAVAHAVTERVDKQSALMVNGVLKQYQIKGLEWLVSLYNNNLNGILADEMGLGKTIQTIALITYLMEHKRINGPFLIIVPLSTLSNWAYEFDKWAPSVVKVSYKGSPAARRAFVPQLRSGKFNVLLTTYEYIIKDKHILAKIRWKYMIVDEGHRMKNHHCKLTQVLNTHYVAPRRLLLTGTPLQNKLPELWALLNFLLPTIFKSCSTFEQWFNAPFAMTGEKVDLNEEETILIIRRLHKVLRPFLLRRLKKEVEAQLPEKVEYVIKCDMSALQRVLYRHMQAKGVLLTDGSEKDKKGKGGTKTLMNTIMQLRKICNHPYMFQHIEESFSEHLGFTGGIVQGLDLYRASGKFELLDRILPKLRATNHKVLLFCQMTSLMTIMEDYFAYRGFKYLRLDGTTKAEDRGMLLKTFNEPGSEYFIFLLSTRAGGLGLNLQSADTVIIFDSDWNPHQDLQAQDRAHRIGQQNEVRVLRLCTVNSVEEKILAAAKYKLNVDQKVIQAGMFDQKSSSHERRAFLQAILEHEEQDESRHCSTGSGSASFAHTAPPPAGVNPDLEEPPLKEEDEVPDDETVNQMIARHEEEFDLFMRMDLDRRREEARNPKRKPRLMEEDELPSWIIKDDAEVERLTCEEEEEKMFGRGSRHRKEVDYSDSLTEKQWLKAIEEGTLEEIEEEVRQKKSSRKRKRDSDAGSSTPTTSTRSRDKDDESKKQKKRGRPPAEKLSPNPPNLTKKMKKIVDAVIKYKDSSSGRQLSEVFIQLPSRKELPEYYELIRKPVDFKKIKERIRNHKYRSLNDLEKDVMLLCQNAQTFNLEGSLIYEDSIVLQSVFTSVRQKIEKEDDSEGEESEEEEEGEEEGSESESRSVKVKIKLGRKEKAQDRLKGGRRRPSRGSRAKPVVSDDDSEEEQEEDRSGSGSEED
Description: as §1, with “On day 1, cells were treated with 120 nL DMSO or 120 nL of 3-fold serially DMSO-diluted compounds (10 points in duplicate with 30 μM as final top dose).” left out
For measurement of BRG1 degradation, a stable HeLa cell line expressing HiBit-BRG1 and LgBit was generated. The same protocol as above was then followed.
as §2

[2] = HeLa cell line expressing HiBit-BRG1 and LgBit

| SMILES | DC50 (HiBit-BRM fusion protein) [nM] | Dmax [1, 2] [%] | DC50 [1, 2] [nM] | Dmax ([1]; HeLa) [%] | BRM HiBit Degradation Maximum (%) (HiBit-BRM fusion protein) |
| --- | --- | --- | --- | --- | --- |
| Cc1ncsc1-c1ccc([C@H](C)NC(=O)[C@@H]2C[C@@H](O)CN2C(=O)[C@@H](c2cc(N3CCC(N4CC(c5cc6nnc(-c7ccccc7O)cc6n5C)C4)CC3)no2)C(C)C)cc1 [Compound 12, (2S,4R)-4-hydroxy-1-((R)-2-(3-(4-(3-(3-(2-hydroxyphenyl)-5-methyl-5H-pyrrolo[3,2-c]pyridazin-6-yl)azetidin-1-yl)piperidin-1-yl)isoxazol-5-yl)-3-methylbutanoyl)-N-((S)-1-(4-(4-methylthiazol-5-yl)phenyl)ethyl)pyrrolidine-2-carboxamide] | < 10 | > 75 | > 10 |  | A (“A” indicates maximum degradation ≥75%) |
| Cc1ncsc1-c1ccc([C@H](C)NC(=O)[C@@H]2C[C@@H](O)CN2C(=O)[C@@H](c2cc(N3CCC(C(=O)N4CC(c5cc6nnc(-c7ccccc7O)cc6n5C)C4)CC3)no2)C(C)C)cc1 [Compound 13, (2S,4R)-4-hydroxy-1-[(2R)-2-[3-(4-{3-[3-(2-hydroxyphenyl)-5-methylpyrrolo[3,2-c]pyridazin-6-yl]azetidine-1-carbonyl}piperidin-1-yl)-1,2-oxazol-5-yl]-3-methylbutanoyl]-N-[(1S)-1-[4-(4-methyl-1,3-thiazol-5-yl)phenyl]ethyl]pyrrolidine-2-carboxamide] | < 10 | > 50 | > 100 |  | A (“A” indicates maximum degradation ≥75%) |
| Cc1ncsc1-c1ccc([C@H](C)NC(=O)[C@@H]2C[C@@H](O)CN2C(=O)[C@@H](c2cc(OCCN3CC(c4cc5nnc(-c6ccccc6O)cc5n4C(F)F)C3)no2)C(C)C)cc1 [Compound 14, (2S,4R)-1-((R)-2-(3-(2-(3-(5-(difluoromethyl)-3-(2-hydroxyphenyl)-5H-pyrrolo[3,2-c]pyridazin-6-yl)azetidin-1-yl)ethoxy)isoxazol-5-yl)-3-methylbutanoyl)-4-hydroxy-N—((S)-1-(4-(4-methylthiazol-5-yl)phenyl)ethyl)pyrrolidine-2-carboxamide] | > 10 | > 50 | > 10 |  | A (“A” indicates maximum degradation ≥75%) |
| Cc1ncsc1-c1ccc([C@H](C)NC(=O)[C@@H]2C[C@@H](O)CN2C(=O)[C@@H](c2cc(OCC(=O)N3CC(c4cc5nnc(-c6ccccc6O)cc5n4C)C3)no2)C(C)C)cc1 [Compound 15, (2S,4R)-4-hydroxy-1-((R)-2-(3-(2-(3-(3-(2-hydroxyphenyl)-5-methyl-5H-pyrrolo[3,2-c]pyridazin-6-yl)azetidin-1-yl)-2-oxoethoxy)isoxazol-5-yl)-3-methylbutanoyl)-N-((S)-1-(4-(4-methylthiazol-5-yl)phenyl)ethyl)pyrrolidine-2-carboxamide] | > 100 | < 50 |  |  | A (“A” indicates maximum degradation ≥75%) |
| Cc1ncsc1-c1ccc([C@H](C)NC(=O)[C@@H]2C[C@@H](O)CN2C(=O)[C@@H](c2cc(-c3cnc(N4CCC(c5cc6nnc(-c7ccccc7O)cc6n5C)CC4)nc3)no2)C(C)C)cc1 [Compound 21, (2S,4R)-4-hydroxy-1-((R)-2-(3-(2-(4-(3-(2-hydroxyphenyl)-5-methyl-5H-pyrrolo[3,2-c]pyridazin-6-yl)piperidin-1-yl)pyrimidin-5-yl)isoxazol-5-yl)-3-methylbutanoyl)-N—((S)-1-(4-(4-methylthiazol-5-yl)phenyl)ethyl) pyrrolidine-2-carboxamide] | < 10 | > 50 | < 10 |  | A (“A” indicates maximum degradation ≥75%) |
| Cc1ncsc1-c1ccc([C@H](C)NC(=O)[C@@H]2C[C@@H](O)CN2C(=O)[C@H](c2cc(-c3cnc(N4CCC(c5cc6nnc(-c7ccccc7O)cc6n5C)CC4)nc3)no2)C(C)C)cc1 [Compound 22, (2S,4R)-4-hydroxy-1-((S)-2-(3-(2-(4-(3-(2-hydroxyphenyl)-5-methyl-5H-pyrrolo[3,2-c]pyridazin-6-yl)piperidin-1-yl)pyrimidin-5-yl)isoxazol-5-yl)-3-methylbutanoyl)-N—((S)-1-(4-(4-methylthiazol-5-yl)phenyl)ethyl)pyrrolidine-2-carboxamide] | > 100 |  |  | < 50 | B (“B” indicates maximum degradation ≥50%) |

Second part, led by results:

| DC50 (HiBit-BRM fusion protein) [nM] | Dmax [1, 2] [%] | DC50 [1, 2] [nM] | Dmax ([1]; HeLa) [%] | SMILES | BRM HiBit Degradation Maximum (%) (HiBit-BRM fusion protein) |
| --- | --- | --- | --- | --- | --- |
|  | < 50 |  |  | Cc1ncsc1-c1ccc([C@H](C)NC(=O)[C@@H]2C[C@@H](O)CN2C(=O)[C@@H](c2cc(OCCN3CC(c4cc5nnc(-c6ccccc6O)cc5n4C4COC4)C3)no2)C(C)C)cc1 [Compound 16, (2S,4R)-4-hydroxy-1-((R)-2-(3-(2-(3-(3-(2-hydroxyphenyl)-5-(oxetan-3-yl)-5H-pyrrolo[3,2-c]pyridazin-6-yl)azetidin-1-yl)ethoxy)isoxazol-5-yl)-3-methylbutanoyl)-N—((S)-1-(4-(4-methylthiazol-5-yl)phenyl)ethyl)pyrrolidine-2-carboxamide] | C (“C” indicates maximum degradation <50%) |
| < 10 | > 75 | > 10 |  | Cc1ncsc1-c1ccc([C@H](C)NC(=O)[C@@H]2C[C@@H](O)CN2C(=O)[C@@H](c2cc(OCCN3CCC(c4cc5nnc(-c6ccccc6O)cc5[nH]4)CC3)no2)C(C)C)cc1 [Compound 17, (2S,4R)-4-hydroxy-1-[(2R)-2-[3-(2-{4-[3-(2-hydroxyphenyl)-5H-pyrrolo[3,2-c]pyridazin-6-yl]piperidin-1-yl}ethoxy)-1,2-oxazol-5-yl]-3-methylbutanoyl]-N-[(1S)-1-[4-(4-methyl-1,3-thiazol-5-yl)phenyl]ethyl]pyrrolidine-2-carboxamide] | A (“A” indicates maximum degradation ≥75%) |
| > 10 | < 50 |  |  | Cc1ncsc1-c1ccc([C@H](C)NC(=O)[C@@H]2C[C@@H](O)CN2C(=O)[C@H](c2cc(-c3cnc(N4CCC(c5cc6nnc(-c7ccccc7O)cc6[nH]5)CC4)nc3)no2)C(C)C)cc1 [Compound 19, (2S,4R)-4-hydroxy-1-[(2S)-2-[3-(2-{4-[3-(2-hydroxyphenyl)-5H-pyrrolo[3,2-c]pyridazin-6-yl]piperidin-1-yl}pyrimidin-5-yl)-1,2-oxazol-5-yl]-3-methylbutanoyl]-N-[(1S)-1-[4-(4-methyl-1,3-thiazol-5-yl)phenyl]ethyl]pyrrolidine-2-carboxamide] | B (“B” indicates maximum degradation ≥50%) |
| < 10 | > 75 | < 10 |  | Cc1ncsc1-c1ccc([C@H](C)NC(=O)[C@@H]2C[C@@H](O)CN2C(=O)[C@@H](c2cc(OCCN3CCC(c4cc5nnc(-c6ccccc6O)cc5n4C)CC3)no2)C(C)C)cc1 [Compound 20, (2S,4R)-4-hydroxy-1-[(2R)-2-[3-(2-{4-[3-(2-hydroxyphenyl)-5-methylpyrrolo[3,2-c]pyridazin-6-yl]piperidin-1-yl}ethoxy)-1,2-oxazol-5-yl]-3-methylbutanoyl]-N-[(1S)-1-[4-(4-methyl-1,3-thiazol-5-yl)phenyl]ethyl]pyrrolidine-2-carboxamide] | A (“A” indicates maximum degradation ≥75%) |
